# Laboratory results as given in patent US10092575B2, “Substituted thiophene- and furan-fused azolopyrimidine-5-(6H)-one compounds” (DART NEUROSCIENCE (CAYMAN) LTD., priority 2012, dated 2018).
# Molecular target: human PDE1b enzyme (Homo sapiens (Human), UniProt Q01064)
# Experiment: PDE1b inhibitory assay (IMAP TR-FRET)
# Conditions: not given
row,SMILES,EC50
1,"COc1ccc(Cn2c(=O)n3ncnc3c3c(C)c(CN4C[C@@H](C)N[C@@H](C)C4)sc32)cc1 [Example 72, 8-(((3R,5S)-3,5-Dimethylpiperazin-1-yl)methyl)-6-(4-methoxybenzyl)-9-methylthieno[3,2-e][1,2,4]triazolo[1,5-c]pyrimidin-5(6H)-one]",100 to 1000 nM
2,"COc1ccc(Cn2c(=O)n3ncnc3c3c(C)c(Br)sc32)cc1 [Example 76, 8-Bromo-6-(4-methoxybenzyl)-9-methylthieno[3,2-e][1,2,4]triazolo[1,5-c]pyrimidin-5(6H)-one]",100 to 1000 nM
3,"COc1ccc(Cn2c(=O)n3ncnc3c3c(C)c(CO)sc32)cc1 [Example 77, 8-(Hydroxymethyl)-6-(4-methoxybenzyl)-9-methylthieno[3,2-e][1,2,4]triazolo[1,5-c]pyrimidin-5(6H)-one]",100 to 1000 nM
4,"COc1ccc(Cn2c(=O)n3ncnc3c3c(CN4C[C@@H](C)O[C@@H](C)C4)csc32)cc1 [Example 78, 9-(((2S,6R)-2,6-Dimethylmorpholino)methyl)-6-(4-methoxybenzyl)thieno[3,2-e][1,2,4]triazolo[1,5-c]pyrimidin-5(6H)-one]",100 to 1000 nM
5,"Cc1oc2c(c1C)c1ncnn1c(=O)n2Cc1ccc(Cl)cc1 [Example 79, 6-(4-Chlorobenzyl)-8,9-dimethylfuro[3,2-e][1,2,4]triazolo[1,5-c]pyrimidin-5(6H)-one]",100 to 1000 nM
6,"O=c1n(Cc2ccccc2Cl)c2sc3c(c2c2ncnn12)CCCC3 [Example 81, 6-(2-Chlorobenzyl)-8,9,10,11-tetrahydrobenzo[4,5]thieno[3,2-e][1,2,4]triazolo[1,5-c]pyrimidin-5(6H)-one]",1000 to 10000 nM
7,"COc1ccc(Cn2c(=O)n3nccc3c3cc(CN4CCOCC4)sc32)cc1 [Example 82, 4-(4-Methoxybenzyl)-2-(morpholinomethyl)pyrazolo[1,5-c]thieno[3,2-e]pyrimidin-5(4H)-one]",100 to 1000 nM
8,"CC1(C)Cc2c(sc3c2c2ncnn2c(=O)n3Cc2ccc(Cl)cc2)CO1 [Example 83, 6-(4-Chlorobenzyl)-10,10-dimethyl-6,8,10,11-tetrahydro-5H-pyrano[4′,3′:4,5]thieno[3,2-e][1,2,4]triazolo[1,5-c]pyrimidin-5-one]",100 to 1000 nM
9,"O=c1n(Cc2ccccc2)c2sc3c(c2c2ncnn12)CCCC3 [Example 84, 6-Benzyl-8,9,10,11-tetrahydrobenzo[4,5]thieno[3,2-e][1,2,4]triazolo[1,5-c]pyrimidin-5(6H)-one]",100 to 1000 nM
10,"O=c1n(Cc2cccc(Cl)c2)c2sc3c(c2c2ncnn12)CCCC3 [Example 85, 6-(3-Chlorobenzyl)-8,9,10,11-tetrahydrobenzo[4,5]thieno[3,2-e][1,2,4]triazolo[1,5-c]pyrimidin-5(6H)-one]",100 to 1000 nM
11,"O=c1n(Cc2ccc(-c3ccccc3)cc2)c2sc3c(c2c2ncnn12)CCCC3 [Example 86, 6-([1,1′-Biphenyl]-4-ylmethyl)-8,9,10,11-tetrahydrobenzo[4,5]thieno[3,2-e][1,2,4]triazolo[1,5-c]pyrimidin-5(6H)-one]",1000 to 10000 nM
12,"O=c1n(Cc2ccc(Cl)cc2)c2sc3c(c2c2ncnn12)CCOC3 [Example 87, 6-(4-Chlorobenzyl)-6,8,10,11-tetrahydro-5H-pyrano[4′,3′:4,5]thieno[3,2-e][1,2,4]triazolo[1,5-c]pyrimidin-5-one]",100 to 1000 nM
13,"Cc1ccc(Cn2c(=O)n3ncnc3c3c4c(sc32)COCC4)cc1 [Example 88, 6-(4-Methylbenzyl)-6,8,10,11-tetrahydro-5H-pyrano[4′,3′:4,5]thieno[3,2-e][1,2,4]triazolo[1,5-c]pyrimidin-5-one]",100 to 1000 nM
14,"O=c1n(Cc2ccc(C(F)(F)F)cc2)c2sc3c(c2c2ncnn12)CCOC3 [Example 89, 6-(4-(Trifluoromethyl)benzyl)-6,8,10,11-tetrahydro-5H-pyrano[4′,3′:4,5]thieno[3,2-e][1,2,4]triazolo[1,5-c]pyrimidin-5-one]",1000 to 10000 nM
15,"O=c1n(Cc2ccc(Cl)c(Cl)c2)c2sc3c(c2c2ncnn12)CCOC3 [Example 91, 6-(3,4-Dichlorobenzyl)-6,8,10,11-tetrahydro-5H-pyrano[4′,3′:4,5]thieno[3,2-e][1,2,4]triazolo[1,5-c]pyrimidin-5-one]",100 to 1000 nM

# Same assay, conditions: negative log of half-maximal molar inhibitory concentration; 200 nM FAM-cAMP; reported as ranges
row,SMILES,PDE1b (pEC50)
1,"COc1ccc(Cn2c(=O)n3ncnc3c3c(C)c(CN4CC5CCC(C4)O5)sc32)cc1 [Example 67, 8-(8-Oxa-3-azabicyclo[3.2.1]octan-3-ylmethyl)-6-(4-methoxybenzyl)-9-methylthieno[3,2-e][1,2,4]triazolo[1,5-c]pyrimidin-5(6H)-one]",>7
2,"CCC1CN(Cc2sc3c(c2C)c2ncnn2c(=O)n3Cc2ccc(OC)cc2)CCO1 (stereo not shown) [Example 68, 8-((2-Ethylmorpholino)methyl)-6-(4-methoxybenzyl)-9-methylthieno[3,2-e][1,2,4]triazolo[1,5-c]pyrimidin-5(6H)-one]",>7
3,"COc1ccc(Cn2c(=O)n3ncnc3c3c(C)c(CN4CCOC(C)(C)C4)sc32)cc1 [Example 69, 8-((2,2-Dimethylmorpholino)methyl)-6-(4-methoxybenzyl)-9-methylthieno[3,2-e][1,2,4]triazolo[1,5-c]pyrimidin-5(6H)-one]",>7
4,"COc1ccc(Cn2c(=O)n3ncnc3c3c(C)c(CN4CCOC(C)C4)sc32)cc1 (stereo not shown) [Example 70, 6-(4-Methoxybenzyl)-9-methyl-8-((2-methylmorpholino)methyl)thieno[3,2-e][1,2,4]triazolo[1,5-c]pyrimidin-5(6H)-one]",>7
5,"COc1ccc(Cn2c(=O)n3ncnc3c3c(C)c(CN4CCOCC4C)sc32)cc1 (stereo not shown) [Example 71, 6-(4-Methoxybenzyl)-9-methyl-8-((3-methylmorpholino)methyl)thieno[3,2-e][1,2,4]triazolo[1,5-c]pyrimidin-5(6H)-one]",>7
6,"COc1ccc(Cn2c(=O)n3ncnc3c3c(C)c(CN4CCN(C)C(C)C4)sc32)cc1 (stereo not shown) [Example 73, 8-((3,4-Dimethylpiperazin-1-yl)methyl)-6-(4-methoxybenzyl)-9-methylthieno[3,2-e][1,2,4]triazolo[1,5-c]pyrimidin-5(6H)-one]",>7
7,"COc1ccc(Cn2c(=O)n3ncnc3c3c(C)c(CN4CCN(C)C(C)(C)C4)sc32)cc1 [Example 74, 6-(4-Methoxybenzyl)-9-methyl-8-((3,3,4-trimethylpiperazin-1-yl)methyl)thieno[3,2-e][1,2,4]triazolo[1,5-c]pyrimidin-5(6H)-one]",>7
8,"COc1ccc(Cn2c(=O)n3ncnc3c3c(C)c(CN4CCN5CCC[C@H]5C4)sc32)cc1 [Example 75, (S)-8-((Hexahydropyrrolo[1,2-a]pyrazin-2(1H)-yl)methyl)-6-(4-methoxybenzyl)-9-methylthieno[3,2-e][1,2,4]triazolo[1,5-c]pyrimidin-5(6H)-one]",>7
9,"COc1ccc(Cn2c(=O)n3ncnc3c3c4c(sc32)CN(C(=O)OC(C)(C)C)CC4)cc1 [Example 80, tert-Butyl 6-(4-methoxybenzyl)-5-oxo-5,6,10,11-tetrahydropyrido[4′,3′:4,5]thieno[3,2-e][1,2,4]triazolo[1,5-c]pyrimidine-9(8H)-carboxylate]",>7
10,"COc1ccc(Cn2c(=O)n3ncnc3c3c4c(sc32)COCC4)cc1 [Example 90, 6-(4-Methoxybenzyl)-6,8,10,11-tetrahydro-5H-pyrano[4′,3′:4,5]thieno[3,2-e][1,2,4]triazolo[1,5-c]pyrimidin-5-one]",>7
